Experiments:
Format in all cases: cell-based
[1] = system: SH-SY5Y human neuroblastoma cells expressing mutated huntingtin (pEGFP-Q74); test: Mutated huntingtin aggregation in transfected SH-SY5Y cells; details: 5 μM, 24 h
Description: Mutated huntingtin proteins aggregation are indicated by white arrows, GFP huntingtin protein (green) and β-tubulin (red). The images were acquired using the Operetta CLS automated confocal microscope, using the 40× water immersion objective.
SH-SY5Y human neuroblastoma cells were maintained in Dulbecco's modified Eagle's medium (DMEM) supplemented with 10% fetal bovine serum (FBS), 2 mM L-glutamine and 100 U/mL penicillin-0.1 mg/mL streptomycin at 37° C. and 5% CO2.
To study the effect of compounds on mutated huntingtin and synuclein that accumulates in cells, SH-SY5Y were transfected with a constitutively active mutated-huntingtin expression vector pEGFP-Q74 (encoding EGFP protein fused to a fragment of huntingtin corresponding to the exon 1 with 74 CAG repeats; c.54GCA[74]; Addgene; #40262) and EGFP-alphasynuclein-A53T (Addgene; #40823).
For transfection assays, cells were seeded (30×10^3 cells/cm^2) on 96-multiwell plates (coated with poliornitine-fibronectine). Cells were transfected with 0.3 μg pEGFP-Q74 plasmid using LTX with Plus Reagent according to the manufacturer's instructions (Thermo Fisher). After 24-h, the medium was changed with a new one, and cells were treated with increasing amounts of GKK1032C and CL0670 (0.1 μM, 1 μM and 5 μM) or DMSO (control cells) for 24 h at 37° C. […]

[2] = system: rat cortical primary neurons; test: H2O2 formation in cortical primary neurons treated with L-BSO and rotenone (Amplex Red)
Description: The data are presented as the mean values±[…] of the mean (SEM) from n=6 (i.e., 6 independent wells measured independently).
After this period, cells were again washed and determined the rate of H2O2 production during the next 2 h.

[3] = system: rat cortical primary neurons; test: Protein concentration in neurons incubated with L-BSO and rotenone (neuronal death); details: L-BSO and rotenone 3 or 6 h with compound at 0.1, 1 or 5 μg/ml; effect as from 0.1 μg/ml (6 h) (FIG. 4)

Structure (SMILES) | mutated huntingtin and number of aggregates [1] | rate of H2O2 formation by the neurons ([2]; L-BSO + rotenone 6 h, washed, then compound added at 1 and 5 μg/ml, H2O2 release recorded 2 h (FIG. 1)) | rate of H2O2 formation ([2]; compound 1 μg/ml together with L-BSO and rotenone for 6 h, washed, recorded 2 h (FIG. 2)) | H2O2 formation in untreated neurons ([2]; pre-treatment 5 μg/ml for 72 h, no L-BSO/rotenone (FIG. 3)) | L-BSO+rotenone-induced H2O2 formation ([2]; pre-treatment 5 μg/ml for 72 h, washed, then L-BSO and rotenone 6 h, recorded 2 h (FIG. 3)) | decrease in protein concentration remaining in the wells (neuronal death) [3]
C=CC1(C)C=C(C)C2C3C(Oc4ccc(cc4)CC4C(=O)NC(O)C4C(=O)C31)C1C(C)CC(C)CC21C (stereo not drawn) [CL0670] | significantly decreased |  |  |  |  | 
C=CC1(C)C=C(C)C2C3C(Oc4ccc(cc4)CC4(O)NC(=O)C5(OC45)C(=O)C31)C1C(C)CC(C)CC21C (stereo not drawn) [Compound I] |  | dose-dependently decreased | significantly impaired | prevented | very significantly prevented | dose-dependently prevented such decrease

Reference: patent publication US20220177484A1, “MACROCYCLES WITH ANTIOXIDANT AND NEUROPROTECTIVE ACTIVITIES” (INSTITUTO BIOMAR, S.A, priority 2019, published 2022)
